17 compounds from patent publication US20230019491A1, “PYRIMIDINE TBK/IKKe INHIBITOR COMPOUNDS AND USES THEREOF” (Merck Patent GmbH, priority 2017, published 2023) can be followed below.

The structures appear in SMILES notation. Where a name gives a salt, the structure may show the parent alone. Bounds are passed on as bounds.

One assay has as its target T1, TBK1 (Homo sapiens, UniProt Q9UHD2).
T1 sequence (Q9UHD2 1-729): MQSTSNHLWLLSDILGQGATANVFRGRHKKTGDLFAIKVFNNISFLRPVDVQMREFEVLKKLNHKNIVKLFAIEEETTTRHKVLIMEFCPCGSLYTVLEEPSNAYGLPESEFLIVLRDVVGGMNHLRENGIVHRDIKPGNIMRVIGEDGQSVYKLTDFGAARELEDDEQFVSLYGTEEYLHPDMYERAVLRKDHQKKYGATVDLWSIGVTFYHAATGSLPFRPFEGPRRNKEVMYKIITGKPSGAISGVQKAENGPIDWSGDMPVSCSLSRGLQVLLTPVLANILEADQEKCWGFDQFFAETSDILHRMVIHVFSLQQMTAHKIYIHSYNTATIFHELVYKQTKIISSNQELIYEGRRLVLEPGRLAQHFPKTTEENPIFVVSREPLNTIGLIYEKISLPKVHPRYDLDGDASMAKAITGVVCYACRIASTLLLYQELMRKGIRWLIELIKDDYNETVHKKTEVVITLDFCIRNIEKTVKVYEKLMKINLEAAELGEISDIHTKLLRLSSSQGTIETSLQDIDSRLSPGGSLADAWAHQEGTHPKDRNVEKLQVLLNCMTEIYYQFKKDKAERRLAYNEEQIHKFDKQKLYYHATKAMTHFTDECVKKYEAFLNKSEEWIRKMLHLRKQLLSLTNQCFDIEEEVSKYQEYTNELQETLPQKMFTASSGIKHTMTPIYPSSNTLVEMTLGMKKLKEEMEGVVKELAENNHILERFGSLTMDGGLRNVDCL
Briefly: TBK biochemical assay. Particulars: 10 point 1:4 dose response, 30 uM top concentration, 90 min at 25° C., LabChip EZ Reader II; read-out: TBK1_IC50. The method, boiled down:
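Substrate and product were separated and quantified by microfluidic mobility-shift read (LabChip). 10 uM staurosporine served as the full-inhibition control, and the reference compound was tested from 1 uM final.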

For another assay, the target named is T2, IKKε (Homo sapiens, UniProt Q14164).
T2 sequence (Q14164 1-716): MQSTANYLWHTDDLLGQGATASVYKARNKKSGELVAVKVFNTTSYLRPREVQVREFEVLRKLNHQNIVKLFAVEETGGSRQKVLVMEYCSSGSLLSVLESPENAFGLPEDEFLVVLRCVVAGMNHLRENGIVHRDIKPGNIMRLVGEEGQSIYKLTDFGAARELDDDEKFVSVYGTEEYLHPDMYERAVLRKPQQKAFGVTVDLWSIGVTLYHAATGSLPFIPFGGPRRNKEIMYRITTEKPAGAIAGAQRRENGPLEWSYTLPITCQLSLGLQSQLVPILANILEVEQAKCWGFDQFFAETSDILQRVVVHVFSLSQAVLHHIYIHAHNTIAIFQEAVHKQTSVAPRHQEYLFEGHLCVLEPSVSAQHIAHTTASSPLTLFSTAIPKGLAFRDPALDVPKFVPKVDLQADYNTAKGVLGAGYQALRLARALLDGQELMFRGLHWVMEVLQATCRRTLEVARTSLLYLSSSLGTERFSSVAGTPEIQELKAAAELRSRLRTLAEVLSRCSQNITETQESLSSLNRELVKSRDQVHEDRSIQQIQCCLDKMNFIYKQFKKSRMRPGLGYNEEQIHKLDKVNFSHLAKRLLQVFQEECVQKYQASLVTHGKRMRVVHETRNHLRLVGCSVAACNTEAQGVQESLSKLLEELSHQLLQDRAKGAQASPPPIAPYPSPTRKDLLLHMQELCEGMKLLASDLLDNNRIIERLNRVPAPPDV
Briefly: IKKε biochemical assay. Particulars: 10 point 1:4 dose response, 30 uM top concentration, 90 min at 25° C., LabChip EZ Reader II; read-out: IKKε_IC50. Summed up: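 Compounds in 1% DMSO final were incubated with IKKε enzyme and substrate at 25° C. for 90 min, then stopped. Substrate and product peaks were resolved by LabChip EZ Reader II mobility-shift read-out. Staurosporine at 10 uM final served as the full-inhibition control.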

Consider `COc1nc(Nc2nccc(-c3ccc(O[C@@H]4CCN(C(=O)[C@@H](C)O)C[C@@H]4F)c(C#N)c3)n2)ccc1C1CCN(C2COC2)CC1` [Example 195, 2-[(3S,4R)-3-Fluoro-1-((R)-2-hydroxy-propionyl)-piperidin-4-yloxy]-5-[2-(2-methoxy-1′-oxetan-3-yl-1′,2′,3′,4′,5′,6′-hexahydro-[3,4′]bipyridinyl-6-ylamino)-pyrimidin-4-yl]-benzonitrile], for which the IC50 on TBK1 and on IKKε was 100 to 1000 nM each time.
Consider `N#Cc1cc(-c2ccnc(Nc3ccc(C4CCN(C5COC5)C4)cc3)n2)ccc1OC1CCNCC1(F)F` (stereo not shown) [Example 155, 2-(3,3-Difluoro-piperidin-4-yloxy)-5-{2-[4-(1-oxetan-3-yl-pyrrolidin-3-yl)-phenylamino]-pyrimidin-4-yl}-benzonitrile hydrochloride], for which the IC50 at TBK1 and at IKKε was under 100 nM each time.
As for `COc1nc(Nc2nccc(-c3ccc(OC4CCN(C(=O)c5cocn5)CC4)c(C#N)c3)n2)ccc1C(=O)N(C)C` [Example 77, 6-([4-[3-cyano-4-([1-[(1,3-oxazol-4-yl)carbonyl]piperidin-4-yl]oxy)phenyl]pyrimidin-2-yl]amino)-2-methoxy-N,N-dimethylpyridine-3-carboxamide], the IC50 at TBK1 and at IKKε was under 100 nM throughout.
For `C[C@H](O)C(=O)N1CCC(Oc2ccc(-c3ccnc(Nc4ccc(C5CCN(C6COC6)C5)cc4)n3)cc2C#N)C(F)(F)C1` (stereo partly drawn) [Example 213, 2-([3,3-difluoro-1-[(2S)-2-hydroxypropanoyl]piperidin-4-yl]oxy)-5-[2-([4-[1-(oxetan-3-yl)pyrrolidin-3-yl]phenyl]amino)pyrimidin-4-yl]benzonitrile], the IC50 at TBK1 and on IKKε was under 100 nM throughout.
On to `COc1nc(Nc2nccc(-c3ccc(OCC4CN(C(=O)[C@H](C)O)C4)c(C#N)c3)n2)ccc1N1CCN(C2COC2)CC1` [Example 279, 2-([1-[(2S)-2-hydroxypropanoyl]azetidin-3-yl]methoxy)-5-[2-([6-methoxy-5-[4-(oxetan-3-yl)piperazin-1-yl]pyridin-2-yl]amino)pyrimidin-4-yl]benzonitrile], for which the figures for the IC50 on TBK1 and at IKKε were under 100 nM and 100 to 1000 nM, respectively.
The corresponding values for `COc1nc(Nc2ncc(F)c(-c3ccc(O[C@H]4CCN(C(=O)C(C)O)C[C@H]4F)c(C#N)c3)n2)ccc1N1CCN(C2COC2)CC1` (stereo in doubt) [Example 297, 2-{[3-fluoro-1-(2-hydroxypropanoyl)piperidin-4-yl]oxy}-5-[5-fluoro-2-({6-methoxy-5-[4-(oxetan-3-yl)piperazin-1-yl]pyridin-2-yl}amino)pyrimidin-4-yl]benzonitrile] are under 100 nM and under 100 nM.
The corresponding values for `COc1nc(Nc2nccc(-c3ccc(OC4CCN(C(=O)c5cocn5)CC4)c(C#N)c3)n2)ccc1N1CCN(C)CC1` [Example 93, 5-(2-[[6-methoxy-5-(4-methylpiperazin-1-yl)pyridin-2-yl]amino]pyrimidin-4-yl)-2-([1-[(1,3-oxazol-4-yl)carbonyl]piperidin-4-yl]oxy)benzonitrile] are under 100 nM and under 100 nM.
The corresponding values for `COc1nc(Nc2ncc(F)c(-c3ccc(OC4CCOCC4)c(C#N)c3)n2)ccc1N1CCN(C)CC1` [Example 67, 5-{5-Fluoro-2-[6-methoxy-5-(4-methyl-piperazin-1-yl)-pyridin-2-ylamino]-pyrimidin-4-yl}-2-(tetrahydro-pyran-4-yloxy)-benzonitrile] are under 100 nM and under 100 nM.
For the compound `N#Cc1cc(-c2ccnc(Nc3ccc(N4CCN(C5COC5)CC4)cc3)n2)ccc1OC1CNC1` [Example 171, 2-(azetidin-3-yloxy)-5-[2-([4-[4-(oxetan-3-yl)piperazin-1-yl]phenyl]amino)pyrimidin-4-yl]benzonitrile], the IC50 on TBK1 and on IKKε was under 100 nM throughout.
For `COc1nc(Nc2nccc(-c3ccc(OC4CCN(C(=O)[C@H](C)OC)CC4(F)F)c(C#N)c3)n2)ccc1N1CCN(C2COC2)CC1` (stereo partly drawn) [Example 246, 2-[3,3-Difluoro-1-((S)-2-methoxy-propionyl)-piperidin-4-yloxy]-5-{2-[6-methoxy-5-(4-oxetan-3-yl-piperazin-1-yl)-pyridin-2-ylamino]-pyrimidin-4-yl}-benzonitrile], the IC50 on TBK1 and at IKKε was under 100 nM in each case.
Turning to `COc1nc(Nc2nccc(-c3ccc(OC4CCOCC4)c(C#N)c3)n2)ccc1C(=O)N1CC2CCC1CN2C` (stereo not shown) [Example 18, 5-(2-[[6-methoxy-5-([5-methyl-2,5-diazabicyclo[2.2.2]octan-2-yl]carbonyl)pyridin-2-yl]amino]pyrimidin-4-yl)-2-(oxan-4-yloxy)benzonitrile], the IC50 on TBK1 and at IKKε was under 100 nM in each case.
As to `COc1nc(Nc2nccc(-c3ccc(OC4CCN(C)C4)c(C#N)c3)n2)ccc1N1CCN(C)CC1` (stereo not shown) [Example 87, 5-(2-[[6-methoxy-5-(4-methylpiperazin-1-yl)pyridin-2-yl]amino]pyrimidin-4-yl)-2-[(1-methylpyrrolidin-3-yl)oxy]benzonitrile], the IC50 at TBK1 and at IKKε was under 100 nM each time.
In the case of `COc1nc(Nc2nccc(-c3ccc(OC4CCN(C(=O)C(C)O)CC4)c(C#N)c3)n2)ccc1N1CCN(C)CC1` (stereo not shown) [Example 91, 2-[[1-(2-hydroxypropanoyl)piperidin-4-yl]oxy]-5-(2-[[6-methoxy-5-(4-methylpiperazin-1-yl)pyridin-2-yl]amino]pyrimidin-4-yl)benzonitrile hydrochloride], the IC50 at TBK1 and at IKKε was under 100 nM in each case.
With `COc1nc(Nc2nccc(-c3ccc(O[C@H]4CCN(C(=O)CO)C[C@H]4F)c(C#N)c3)n2)ccc1C(=O)N(C)C` [Example 75, 6-[[4-(3-cyano-4-[[(3R,4S)-3-fluoro-1-(2-hydroxyacetyl)piperidin-4-yl]oxy]phenyl)pyrimidin-2-yl]amino]-2-methoxy-N,N-dimethylpyridine-3-carboxamide hydrochloride], the IC50 on TBK1 and at IKKε was under 100 nM throughout.
With `COc1nc(Nc2nccc(-c3ccc(OC4CN(C)C4)c(C#N)c3)n2)ccc1C(=O)N(C)C` [Example 69, 6-[(4-[3-cyano-4-[(1-methylazetidin-3-yl)oxy]phenyl]pyrimidin-2-yl)amino]-2-methoxy-N,N-dimethylpyridine-3-carboxamide], the IC50 at TBK1 and at IKKε was 100 to 1000 nM each time.
For the compound `COc1nc(Nc2nccc(-c3ccc(OC4CCOCC4)c(C#N)c3)n2)ccc1C(=O)N1CC2COCC2C1` (stereo not shown) [Example 12, 5-(2-[[5-([hexahydro-1H-furo[3,4-c]pyrol-5-yl]carbonyl)-6-methoxypyridin-2-yl]amino]pyrimidin-4-yl)-2-(oxan-4-yloxy)benzonitrile], the IC50 on TBK1 and on IKKε was under 100 nM throughout.
In the case of `COc1nc(Nc2nccc(-c3ccc(OC4CCN(C(=O)[C@H](C)O)CC4)c(C#N)c3)n2)ccc1N1CCN(C2COC2)CC1` [Example 187, 2-([1-[(2S)-2-hydroxypropanoyl]piperidin-4-yl]oxy)-5-[2-([6-methoxy-5-[4-(oxetan-3-yl)piperazin-1-yl]pyridin-2-yl]amino)pyrimidin-4-yl]benzonitrile], the IC50 at TBK1 and at IKKε was under 100 nM throughout.
